How the values were obtained:
ob/ob mice = experiment: Chronic efficacy study in ob/ob mice; type: in vivo, mouse
Procedure: (§1) Samples for MNA were analyzed employing a fit-for-purpose LC-MS/MS method. PE-Sciex API-4000 triple quadrupole (PerkinElmerSciex Instruments, Boston, MA) mass spectrometer was employed for this analysis. Samples (5 µL) were injected onto Kinetex HILIC (50 × 4.6 mm, 2.6 µm; Phenomenex, Torrance, CA, USA) column connected to Shimadzu VP (Shimadzu, Japan) LC system. The gradient mobile phase mixture of 0.2% formic acid and acetonitrile was delivered at a flow rate of 0.45 ml min-1 into the mass spectrometer electrospray ionization (ESI) chamber. Quantitation was achieved by MS/MS detection in positive ion mode for MNA and internal standard (d4–MNA). Detection of the ions was performed in the multiple reaction monitoring (MRM) mode, monitoring the transition of the m/z 137 precursor ion to the m/z 92 product ion for MNA and m/z 141 precursor ion to the m/z 84 product ion for d4-MNA (internal standard).
(§2) A simple protein precipitation extraction method was followed for extraction of N-methylnicotinamide from plasma and various tissue homogenate samples. The tissue samples were homogenized with 1:3 proportions of phosphate buffer saline (PBS) and this homogenate was used for N-Methylnicotinamide determinations. To an aliquot of ~50 μL of plasma/ liver homogenate/ adipose tissue homogenate samples ~300 µl of acetonitrile containing IS (d4-MNA) solution was added, followed by vortex for ~3 minutes and centrifuged for 10 minutes at 14,000 rpm. The supernatant was separated and transferred to pre-labeled HPLC vials and analyzed by LC-MS/MS system.
(§3) Male C57BL6/N (Vivo Bio Tech Ltd, India), ob/ob (B6.V-Lepob/OlaHsd) and its lean control (Envigo laboratories Inc, USA) and db/db (BKS.Cg- + Leprdb/ + Leprdb/OlaHsd) and its lean control (Envigo laboratories Inc, USA) were housed in individually ventilated cages (n = 5/cage) under standard laboratory conditions. The study room environment was maintained at a temperature of 21–24 °C and, relative humidity at 40–70%. The animal rooms were maintained under 12 h light and dark cycle. Animals were provided with ad libitum access to water and food (except where noted otherwise, e.g. during fasting prior for glucose tolerance tests, fasting prior to terminal sacrifice). Animals were acclimatized for 1 week before initiation of studies. For Diet induced obesity (DIO) mice study, C57BL6/N mice were maintained on rodents chow diet (Teklad; Harlan) or HFD (60% Kcal; Research diet) for 14 weeks before study initiation and throughout the study period. ob/ob and db/db mice and their lean controls were maintained on rodents chow diet (Teklad; Harlan). All the experiments were approved by Institutional Animal Ethics Committee (IAEC) of Jubilant Biosys Ltd, India.
Lean control + Vehicle and HFD + Vehicle Control groups (G1 and G2) mice were administered with vehicle. Dose formulations of HFD + JBSNF-000088, 50 mg kg^−1, po, bid were administered at dose volume of 5 mL kg^−1 body weight to G3 mice. Similar pattern was followed for ob/ob mice and db/db mice studies. The dose volume for individual animals was calculated based on the most recently recorded body weight during the study period. […] Cage side observations of animals for visible clinical signs, was carried out once daily throughout the study period. Individual animal body weights were recorded twice weekly during the study period.
The ob/ob mice were 12 weeks of age at the start of the study and db/db mice were 8 weeks of age at the start of the study. DIO mice were 20 weeks of age at the start of the study. In each study, non-diabetic lean mice comprised the control group which received vehicle (0.5% w/v HEC and 0.5% v/v Tween 80) and obese or diabetic mice were randomly assigned to two groups based on body weight and unfasted glucose which received either vehicle (0.5% w/v HEC and 0.5% v/v Tween 80) or JBSNF-000088, 50 mg kg^−1, po, bid for 30 days.

[1] = molecular target: Histamine Receptor 2 (H2) (Homo sapiens, UniProt P25021); experiment: Selectivity panel: H2; type: cell-based
Histamine Receptor 2 (H2), sequence (P25021 whole entry): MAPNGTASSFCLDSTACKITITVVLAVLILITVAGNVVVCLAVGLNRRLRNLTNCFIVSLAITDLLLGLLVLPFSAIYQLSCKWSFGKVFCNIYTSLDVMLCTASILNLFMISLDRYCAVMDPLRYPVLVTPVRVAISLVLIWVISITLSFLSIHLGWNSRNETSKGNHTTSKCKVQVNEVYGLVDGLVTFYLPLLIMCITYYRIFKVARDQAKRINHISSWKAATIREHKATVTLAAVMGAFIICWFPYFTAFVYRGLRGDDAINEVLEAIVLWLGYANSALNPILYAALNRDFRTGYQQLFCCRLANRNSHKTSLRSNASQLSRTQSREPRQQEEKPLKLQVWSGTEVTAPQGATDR

in vitro [2] = settings: mouse, microsomes, Metabolic stability mouse microsomes (% remaining)
[3] = test system: Glycine Receptor (strychnine-sensitive); experiment: Selectivity panel: glycine receptor; type: binding; settings: 10 µM
db/db mice = experiment: Chronic efficacy study in db/db mice; settings: db/db mice
Procedure: as §1, §2
Samples for methylated JBSNF-000088 were analyzed employing a fit-for-purpose LC-MS/MS method. PE-Sciex API-5500 triple quadrupole (PerkinElmerSciex Instruments, Boston, MA) mass spectrometer was employed for this analysis. Samples (2 µL) were injected onto Atlantis dC18 (50 × 4.6 mm, 3 µm; Waters, Milford, MA, USA) column connected to Shimadzu VP (Shimadzu, Japan) LC system. The gradient mobile phase mixture of 0.2% formic acid and acetonitrile was delivered at a flow rate of 0.9 mL min-1 into the mass spectrometer electrospray ionization (ESI) chamber. Quantitation was achieved by MS/MS detection in positive ion mode for methylated JBSNF-000088 and internal standard (Tolbutamide). Detection of the ions was performed in the multiple reaction monitoring (MRM) mode, monitoring the transition of the m/z 168 precursor ion to the m/z 128.8, product ion for MNA and m/z 271 precursor ion to the m/z 91 product ion for tolbutamide (internal standard).
as §3
Lean control + Vehicle and HFD + Vehicle Control groups (G1 and G2) mice were administered with vehicle.

in vitro [4] = settings: human, hepatocytes
[5] = molecular target: Serotonin Receptor 1A (5HT1A) (Homo sapiens, UniProt P08908); experiment: Selectivity panel: 5HT1A; type: cell-based
Serotonin Receptor 1A (5HT1A), sequence (P08908 whole entry): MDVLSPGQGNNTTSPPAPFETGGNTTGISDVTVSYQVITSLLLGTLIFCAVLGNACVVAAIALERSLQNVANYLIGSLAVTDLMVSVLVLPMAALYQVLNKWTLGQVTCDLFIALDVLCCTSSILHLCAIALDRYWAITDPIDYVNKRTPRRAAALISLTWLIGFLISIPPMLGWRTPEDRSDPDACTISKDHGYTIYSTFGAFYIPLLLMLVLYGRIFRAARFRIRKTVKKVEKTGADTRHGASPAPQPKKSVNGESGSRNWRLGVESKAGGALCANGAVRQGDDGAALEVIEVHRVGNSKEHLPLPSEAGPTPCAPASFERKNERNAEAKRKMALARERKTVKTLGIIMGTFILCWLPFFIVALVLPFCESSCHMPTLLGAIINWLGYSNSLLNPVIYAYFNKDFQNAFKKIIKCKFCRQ
Procedure: Supplement 41598_2018_22081_MOESM1_ESM.docx, table 2: Supplementary table 2: Selectivity profile of JBSNF-000088 (at 10 µM) vs a panel of 34 receptors, channels and enzymes. | column: E% (agonistic); I% (antagonistic or inhibitory)

[6] = molecular target: Norepinephrin (Noradrenalin) Transporter (Homo sapiens, UniProt P23975); experiment: Selectivity panel: norepinephrine transporter; type: binding; settings: read-out: I% (antagonistic or inhibitory), Norepinephrin (Noradrenalin) Transporter
Norepinephrin (Noradrenalin) Transporter, sequence (P23975 whole entry): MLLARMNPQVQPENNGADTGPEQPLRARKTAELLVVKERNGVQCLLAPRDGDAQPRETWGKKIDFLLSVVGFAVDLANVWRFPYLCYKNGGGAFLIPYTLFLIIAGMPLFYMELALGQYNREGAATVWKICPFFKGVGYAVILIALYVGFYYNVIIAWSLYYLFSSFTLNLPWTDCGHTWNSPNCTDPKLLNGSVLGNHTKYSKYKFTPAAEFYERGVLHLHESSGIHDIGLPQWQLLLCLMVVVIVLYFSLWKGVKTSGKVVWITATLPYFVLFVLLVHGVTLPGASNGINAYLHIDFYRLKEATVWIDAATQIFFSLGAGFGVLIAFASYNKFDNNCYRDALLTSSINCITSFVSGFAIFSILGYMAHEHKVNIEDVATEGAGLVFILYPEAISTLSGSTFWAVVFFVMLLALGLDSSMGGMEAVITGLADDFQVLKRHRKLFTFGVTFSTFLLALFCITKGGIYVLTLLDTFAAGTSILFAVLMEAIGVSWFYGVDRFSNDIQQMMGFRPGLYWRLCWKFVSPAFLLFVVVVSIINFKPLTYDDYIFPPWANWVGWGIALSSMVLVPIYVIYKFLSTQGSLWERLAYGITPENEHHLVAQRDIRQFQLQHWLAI
Procedure: Supplement 41598_2018_22081_MOESM1_ESM.docx, table 2: Supplementary table 2: Selectivity profile of JBSNF-000088 (at 10 µM) vs a panel of 34 receptors, channels and enzymes. | column: I% (antagonistic or inhibitory)

[7] = 30 days, p < 0.0001 vs vehicle control

For `COc1ccc(C(N)=O)cn1` [JBSNF-000088, 6-methoxynicotinamide], the body weight gain (ob/ob mice; 50 mg/kg b.i.d p.o., 30 days, vs vehicle) was “gained comparable weight”, the “MNA levels in visceral WAT and subcutaneous fat” value (ob/ob mice; [7]) was “statistically significant reduction” and the “fed blood glucose or insulin” value (ob/ob mice; day 21, vs vehicle control) was “no reduction”. For the same compound, the glucose tolerance (ob/ob mice; day 28) was “statistically significant improvement”, the “AUC blood glucose (OGTT)” value (ob/ob mice; day 28, p < 0.001 vs vehicle control) was “significantly (p < 0.001) lower” and the plasma insulin (ob/ob mice; fed days 7, 14 or 21, fasting day 28, 15 minutes after glucose bolus) was “not accompanied by a reduction in plasma insulin”. For the same compound, the HOMA-IR index (ob/ob mice; p < 0.001 vs vehicle control) was “statistically significant improvement”, the cumulative food intake (ob/ob mice; vs vehicle) was “comparable” and the “E% (agonistic), H2” value ([1]; 10 µM) was -1%. For the same compound, the inhibition at 10 µM ([1]; read-out: I% (antagonistic or inhibitory), H2) was 6%, the remaining at 0.5 h (in vitro [2]) was over 70% and the “I% (antagonistic or inhibitory), Glycine Receptor (strychnine-sensitive)” value [3] was -7%. The HOMA-IR (db/db mice) was “no change”, the body weight gain (db/db mice; 50 mg kg^−1 bid, four weeks, vs vehicle) was “gained comparable weight” and the “MNA levels in liver and visceral WAT and s/c fat” value (db/db mice; [7]) was “statistically significant reduction”. The fed blood glucose (db/db mice; day 21, p < 0.001 vs vehicle control) was “moderate but statistically significant reduction”, the glucose tolerance (db/db mice; day 26, not statistically significant) was “trend towards improvement” and the “Fed insulin levels on days 7, 14 and 21 and fasting insulin levels on day 28” value (db/db mice; vs vehicle) was “not different”. For the same compound, the cumulative food intake (db/db mice; vs vehicle) was “comparable”, the “AUC blood glucose (OGTT)” value (db/db mice; vs vehicle control) was “Slightly lower” and the remaining at 0.5 h (in vitro [4]) was over 70%. For the same compound, the “E% (agonistic), 5HT1A” value ([5]; 10 µM) was 5%, the inhibition at 10 µM ([5]; read-out: I% (antagonistic or inhibitory), 5HT1A) was -13% and the inhibition at 10 µM [6] was 9%.

— article PMC5826917, “A small molecule inhibitor of Nicotinamide N-methyltransferase for the treatment of metabolic disorders” (Scientific Reports, 2018)
